Source: the supplement of paper PMC5908809

Key:
[1] = test system: normal NK cells expanded with K562-aAPC; experiment: drug sensitivity score (DSS) (DSS units); higher = more sensitive; extreme values may be limits of the assay; conditions: 72 h; IL-2 2.5 ng/mL
Method: (§1)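 Drug sensitivity and resistance testing on K562-aAPC-expanded normal NK cells: 5 concentrations (10-fold steps over a 10,000-fold range), 72 h at 37 °C, viability by CellTiter-Glo normalised to DMSO and benzethonium chloride controls; DSS from the fitted curve.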

NK-YS (IL-2 2.5 ng/mL) [2] = experiment: as above; conditions: 72 h
[3] = test system: normal primary NK cells, pool 1 (3 donors), resting (IL-2 0 ng/mL); experiment: as above; conditions: 72 h
DERL-7 (IL-2 2.5 ng/mL) [4] = experiment: as above; conditions: 72 h
NKL (IL-2 2.5 ng/mL) [5] = experiment: as above; conditions: 72 h
KHYG-1 (IL-2 2.5 ng/mL) [6] = experiment: as above; conditions: 72 h
KAI3 (IL-2 2.5 ng/mL) [7] = experiment: as above; conditions: 72 h
YT (IL-2 2.5 ng/mL) [8] = experiment: as above; conditions: 72 h
SNK-6 (IL-2 2.5 ng/mL) [9] = experiment: as above; conditions: 72 h
[10] = test system: normal primary NK cells, pool 1 (3 donors) (IL-2 2.5 ng/mL); experiment: as above; conditions: 72 h
NK-92 (IL-2 2.5 ng/mL) [11] = experiment: as above; conditions: 72 h
[12] = test system: normal primary NK cells, pool 2 (3 donors) (IL-2 2.5 ng/mL); experiment: as above; conditions: 72 h
IMC-1 (IL-2 20 ng/mL) [13] = experiment: as above; conditions: 72 h
[14] = test system: normal primary NK cells, pool 3 (3 donors) (IL-2 2.5 ng/mL); experiment: as above; conditions: 72 h
[15] = test system: normal NK cells expanded with K562-aAPC; experiment: percent inhibition of viability; higher = more inhibition; conditions: 72 h, IL-2 2.5 ng/mL
Method: as §1

NK-YS (IL-2 2.5 ng/mL) [16] = experiment: as above; conditions: 72 h
[17] = test system: normal primary NK cells, pool 1 (3 donors), resting (IL-2 0 ng/mL); experiment: as above; conditions: 72 h
DERL-7 (IL-2 2.5 ng/mL) [18] = experiment: as above; conditions: 72 h
NKL (IL-2 2.5 ng/mL) [19] = experiment: as above; conditions: 72 h
KHYG-1 (IL-2 2.5 ng/mL) [20] = experiment: as above; conditions: 72 h
KAI3 (IL-2 2.5 ng/mL) [21] = experiment: as above; conditions: 72 h
YT (IL-2 2.5 ng/mL) [22] = experiment: as above; conditions: 72 h
SNK-6 (IL-2 2.5 ng/mL) [23] = experiment: as above; conditions: 72 h
[24] = test system: normal primary NK cells, pool 1 (3 donors) (IL-2 2.5 ng/mL); experiment: as above; conditions: 72 h
NK-92 (IL-2 2.5 ng/mL) [25] = experiment: as above; conditions: 72 h
[26] = test system: normal primary NK cells, pool 2 (3 donors) (IL-2 2.5 ng/mL); experiment: as above; conditions: 72 h
IMC-1 (IL-2 20 ng/mL) [27] = experiment: as above; conditions: 72 h
[28] = test system: normal primary NK cells, pool 3 (3 donors) (IL-2 2.5 ng/mL); experiment: as above; conditions: 72 h

CC[C@H](C)C(=O)O[C@H]1C[C@@H](C)C=C2C=C[C@H](C)[C@H](CC[C@@H]3C[C@@H](O)CC(=O)O3)[C@H]21 [Lovastatin] (max concentration tested 10000 nM)
Conditions | drug sensitivity score
DERL-7 (IL-2 2.5 ng/mL) [4] | 0
IMC-1 (IL-2 20 ng/mL) [13] | 0
KAI3 (IL-2 2.5 ng/mL) [7] | 0.22
KHYG-1 (IL-2 2.5 ng/mL) [6] | 0
NK-92 (IL-2 2.5 ng/mL) [11] | 0
NK-YS (IL-2 2.5 ng/mL) [2] | 4.64
NKL (IL-2 2.5 ng/mL) [5] | 2.39
SNK-6 (IL-2 2.5 ng/mL) [9] | 0
YT (IL-2 2.5 ng/mL) [8] | 0.36
[1] | 0
[3] | 1.12
[10] | 0
[12] | 0
[14] | 0

percent inhibition of viability [%]
Conditions | 1 nM | 10 nM | 100 nM | 1000 nM | 10000 nM
DERL-7 (IL-2 2.5 ng/mL) [18] | 2.67 | -1.74 | 3.23 | -2.63 | 7.15
IMC-1 (IL-2 20 ng/mL) [27] | 0.36 | -4.93 | -3.87 | -8.19 | 5.39
KAI3 (IL-2 2.5 ng/mL) [21] | 0.53 | 3.49 | -3.97 | 0.77 | 14
KHYG-1 (IL-2 2.5 ng/mL) [20] | 0.32 | -1.28 | -1.4 | 5.79 | 9.85
NK-92 (IL-2 2.5 ng/mL) [25] | -12 | -4.31 | 2.92 | -2.72 | 4.38
NK-YS (IL-2 2.5 ng/mL) [16] | -0.66 | -1.57 | -0.61 | 9.14 | 57.5
NKL (IL-2 2.5 ng/mL) [19] | -8.92 | -7.04 | -16.3 | -3.47 | 50.5
SNK-6 (IL-2 2.5 ng/mL) [23] | 9.2 | 3.13 | 18.8 | 3.99 | -5.4
YT (IL-2 2.5 ng/mL) [22] | 1.08 | 0.01 | -2.08 | 1.47 | 15
[15] | 0.56 | -5.1 | -9.52 | -6.29 | -8.93
[17] | -2.63 | -14.8 | -15 | 10.9 | 16
[24] | -9.05 | -11.9 | -5.92 | 4.69 | 0.82
[26] | -9.06 | -2.92 | -2.71 | -5.88 | -6.36
[28] | -7.92 | -10.5 | -6.75 | -10.6 | -16

C=CCn1c(=O)c2cnc(Nc3ccc(N4CCN(C)CC4)cc3)nc2n1-c1cccc(C(C)(C)O)n1 [MK1775] (max concentration tested 10000 nM)
Conditions | drug sensitivity score
DERL-7 (IL-2 2.5 ng/mL) [4] | 20.4
IMC-1 (IL-2 20 ng/mL) [13] | 17.1
KAI3 (IL-2 2.5 ng/mL) [7] | 21.8
KHYG-1 (IL-2 2.5 ng/mL) [6] | 27.1
NK-92 (IL-2 2.5 ng/mL) [11] | 24.3
NK-YS (IL-2 2.5 ng/mL) [2] | 18.8
NKL (IL-2 2.5 ng/mL) [5] | 25.5
SNK-6 (IL-2 2.5 ng/mL) [9] | 21
YT (IL-2 2.5 ng/mL) [8] | 20.4
[1] | 13
[3] | 0
[10] | 3.64
[12] | 2.29
[14] | 1.01

percent inhibition of viability [%]
Conditions | 1 nM | 10 nM | 100 nM | 1000 nM | 10000 nM
DERL-7 (IL-2 2.5 ng/mL) [18] | 0.66 | 0.03 | 17.1 | 97.5 | 92.2
IMC-1 (IL-2 20 ng/mL) [27] | -5.81 | -5.29 | -4.21 | 96.3 | 99
KAI3 (IL-2 2.5 ng/mL) [21] | -0.83 | 7.57 | 45.7 | 91.1 | 90.4
KHYG-1 (IL-2 2.5 ng/mL) [20] | -2.16 | 1.16 | 78.7 | 102 | 98.7
NK-92 (IL-2 2.5 ng/mL) [25] | 4.45 | -1.85 | 53.5 | 98.9 | 97.4
NK-YS (IL-2 2.5 ng/mL) [16] | -5.73 | -7.13 | 10.9 | 92.7 | 94.9
NKL (IL-2 2.5 ng/mL) [19] | -16 | 4.83 | 68.4 | 94.3 | 64.4
SNK-6 (IL-2 2.5 ng/mL) [23] | -5.66 | -15.9 | 26.5 | 92.5 | 96.4
YT (IL-2 2.5 ng/mL) [22] | 1.53 | 1.29 | 16.2 | 98.3 | 98.1
[15] | -4.38 | -1.43 | 28.4 | 50.9 | 65.7
[17] | -1.92 | -3.22 | 7.91 | 4.91 | -27.9
[24] | -14.7 | -12.2 | -5.81 | 9.3 | 42.5
[26] | -15.1 | -7.74 | -2.34 | 4.19 | 34.3
[28] | -17.6 | -4.31 | -8.03 | 5.21 | 17.9

O=C(O)CC[C@H]1CC[C@@](c2cc(F)ccc2F)(S(=O)(=O)c2ccc(Cl)cc2)CC1 [MK-0752] (max concentration tested 1000 nM)
Conditions | drug sensitivity score
DERL-7 (IL-2 2.5 ng/mL) [4] | 0
IMC-1 (IL-2 20 ng/mL) [13] | 0
KAI3 (IL-2 2.5 ng/mL) [7] | 0
KHYG-1 (IL-2 2.5 ng/mL) [6] | 0
NK-92 (IL-2 2.5 ng/mL) [11] | 0
NK-YS (IL-2 2.5 ng/mL) [2] | 0.08
NKL (IL-2 2.5 ng/mL) [5] | 0
SNK-6 (IL-2 2.5 ng/mL) [9] | 1.21
YT (IL-2 2.5 ng/mL) [8] | 0
[1] | 1.1
[3] | 0
[10] | 0
[12] | 0
[14] | 0

percent inhibition of viability [%]
Conditions | 0.1 nM | 1 nM | 10 nM | 100 nM | 1000 nM
DERL-7 (IL-2 2.5 ng/mL) [18] | -0.82 | -1.19 | -2.01 | -1.84 | 0.38
IMC-1 (IL-2 20 ng/mL) [27] | -1.19 | -1.62 | 3.7 | 1.88 | 9.87
KAI3 (IL-2 2.5 ng/mL) [21] | -5.58 | -3.61 | -11.2 | -10.3 | 10.8
KHYG-1 (IL-2 2.5 ng/mL) [20] | 2.68 | -1.92 | 2.12 | -1.77 | 2.96
NK-92 (IL-2 2.5 ng/mL) [25] | -10.8 | -16 | 2.19 | -18.6 | 9.52
NK-YS (IL-2 2.5 ng/mL) [16] | 1.77 | 3.33 | 4.23 | -0.52 | 12.9
NKL (IL-2 2.5 ng/mL) [19] | -5.92 | -6.47 | 1.23 | 0.27 | -0.85
SNK-6 (IL-2 2.5 ng/mL) [23] | -1.33 | 10 | 0.79 | 21.6 | 11.5
YT (IL-2 2.5 ng/mL) [22] | -5.65 | -0.71 | -6.38 | -14.1 | 8.32
[15] | -3.97 | 0.91 | 0.33 | 10.8 | 16.2
[17] | -1.4 | -17 | -8.36 | -13.1 | -7.22
[24] | 1.14 | -1.74 | -0.83 | -10.7 | 3.87
[26] | -9.74 | -4.15 | -0.03 | -3.82 | -3.17
[28] | -11.6 | -7.52 | 0.99 | -5.48 | 3.93

NC1(c2ccc(-c3nc4ccn5c(=O)[nH]nc5c4cc3-c3ccccc3)cc2)CCC1 [MK-2206] (max concentration tested 1000 nM)
Conditions | drug sensitivity score
DERL-7 (IL-2 2.5 ng/mL) [4] | 8.28
IMC-1 (IL-2 20 ng/mL) [13] | 0
KAI3 (IL-2 2.5 ng/mL) [7] | 1.8
KHYG-1 (IL-2 2.5 ng/mL) [6] | 0.23
NK-92 (IL-2 2.5 ng/mL) [11] | 4.95
NK-YS (IL-2 2.5 ng/mL) [2] | 0.39
NKL (IL-2 2.5 ng/mL) [5] | 0
SNK-6 (IL-2 2.5 ng/mL) [9] | 0.95
YT (IL-2 2.5 ng/mL) [8] | 0
[1] | 5.95
[3] | 3.29
[10] | 1.31
[12] | 2.88
[14] | 1.47

percent inhibition of viability [%]
Conditions | 0.1 nM | 1 nM | 10 nM | 100 nM | 1000 nM
DERL-7 (IL-2 2.5 ng/mL) [18] | -1.61 | 2.78 | 9.98 | 34.8 | 76
IMC-1 (IL-2 20 ng/mL) [27] | -4.35 | -1.09 | -0.11 | -1.78 | 9.7
KAI3 (IL-2 2.5 ng/mL) [21] | 0.47 | -1.02 | 11.1 | 11.8 | 17.4
KHYG-1 (IL-2 2.5 ng/mL) [20] | -0.27 | 8.2 | 6.87 | 6.05 | 14.9
NK-92 (IL-2 2.5 ng/mL) [25] | -0.6 | -11 | 14.7 | 21.1 | 42.8
NK-YS (IL-2 2.5 ng/mL) [16] | 2 | 1.38 | 5.87 | 2.52 | 14.5
NKL (IL-2 2.5 ng/mL) [19] | -12.3 | -6.86 | -5.82 | 11.8 | 4.37
SNK-6 (IL-2 2.5 ng/mL) [23] | -2.51 | -8.62 | 3.89 | 0.46 | 24.3
YT (IL-2 2.5 ng/mL) [22] | -0.31 | -0.89 | 5.71 | 2.26 | 10.1
[15] | -2.31 | 2.49 | 7.6 | 28.5 | 45.6
[17] | 11.9 | -0.15 | 13.2 | 11.8 | 43
[24] | -0.91 | -7.29 | 2.37 | 6.7 | 21.3
[26] | -7.56 | 2.73 | 8.98 | 12.9 | 34.8
[28] | -11.3 | -6.35 | -0.77 | 8.45 | 19.7
